Test results taken from patent US10085955B2, “Methods and compositions for treatment of demyelinating diseases” (Pathologica LLC, priority 2013, dated 2018).
“Also recorded” adds a separate entry of the source.

Tests used:
[1] = test system: MOG-induced experimental autoimmune encephalomyelitis (EAE); assay: Second MOG EAE protocol, clinical readouts; format: in vivo, C57BL/6 mice; details: second study; MGBG 30 mpk BID, fingolimod 1 mpk QD
Description: An experimental murine model of multiple sclerosis employing a myelin oligodendrocyte glycoprotein (MOG) peptide to induce experimental autoimmune encephalomyelitis (EAE) was employed to determine the efficacy of MGBG in preventing and treating that disease. Because of its many similarities to MS, EAE is commonly used to study pathogenesis of autoimmunity, CNS inflammation, demyelination, cell trafficking, and tolerance induction. EAE is characterized by paralysis (in some models the paralysis is remitting-relapsing), CNS inflammation and demyelination. EAE is mediated primarily by dendritic cells, myelin-specific T cells (e.g. Th1 and Th17), and M1 macrophages. B cells may also play a role in some models of EAE. Body weight also tracks disease progression. EAE is induced in C57BL/6 mice by immunization with MOG35-55 or MOG1-125 in CFA emulsion followed by administration of pertussis toxin (PTX) in PBS. The emulsion provides antigen which initiates expansion and differentiation of MOG-specific autoimmune T cells. PTX enhances EAE development by providing additional adjuvant and facilitating entrance of autoimmune T cells into the CNS. […]
Clinically, EAE progression is scored on a scale of 0 to 5, wherein each score represents the following clinical observations: […]

[2] = test system: collagen-induced arthritis (CIA) model; assay: Murine collagen-induced arthritis; format: in vivo, DBA/1 mice; details: mice, 25 mg/kg PO BID
Description: The collagen-induced arthritis (CIA) model is considered a suitable model for studying potential drugs active in human arthritis because of the many immunological and pathological similarities to human rheumatoid arthritis (RA), the involvement of localized major histocompatibility, […] class-II-restricted T helper lymphocyte activation, and the similarity of histological lesions. See, e.g., Rosloniec E F et al., “Collagen-Induced Arthritis,” Current Protocols in Immunology, Unit 15.5 (1993). See also the model using a monoclonal antibody to CD18 and VLA-4 integrins described in Issekutz, A. C. et al., Immunology (1996) 88:569. […]
Data. […] Edema is measured on days 18-20, 22-27, and 29-34. Inflammation is assessed by infiltration of inflammatory cells and edema. Post-euthanasia, terminal blood draws are collected, heparinized, and frozen at −70° C. until analyzed for cytokines such as osteopontin, TNFalpha, IL-1, CRP, MCP1, MIP-lbeta, RANTES, IFNgamma, TGFbeta, IP-10, IL-17, and MMP9. […] Bone resorption is quantified by presence of osteoclasts, defects in or loss of medullary trabecular or cortical bone. Cartilage damage is assessed by examining the severity and spread of chondrocyte loss and collagen disruption. […]
Statistical Analysis. Clinical data for paw scores (means for animal) are analyzed by determining the area under the dosing curve (AUC) for days 1-15. […]

With `CC(/C=N/NC(=N)N)=N\NC(=N)N` [MGBG, 1,1′ [methylethanediylidene]dinitrilodiguanidine] the “EAE disease development / severity” value [1] was “suppressed EAE comparably to 1 mpk fingolimod; also recorded: substantially reduced disease compared to that of the vehicle group; also recorded: efficacious at postponing disease onset and reducing EAE severity”, the “early phase of paw swelling/inflammation” value [2] was “did affect the early phase of paw swelling/inflammation” and the “efficacy as a disease-modifying anti-rheumatic drug (DMARD)” value [2] was “not efficacious”.
